From a melting point compilation (Tetko et al.; mined from patent text by program, amines drawn as free bases though some values may be those of a salt) come the findings set out here.

As a reminder, the melting point is the temperature, or range, at which the solid turns liquid. In the case of `CC(C)c1cc(O)cc(C(C)C)c1`, the melting point was 51 to 52 °C.
For the molecule `CCS(=O)(=O)N[C@H](C(=O)NCCc1cc(Br)c(OCc2ccccc2)c(OC)c1)C(C)C`, the melting point lay within 128 to 130 °C.
In turn, `[N-]=[N+]=C1c2ccccc2-c2ccc(Cl)cc21` displayed a melting point of 102 to 108 °C.
`CCC(=CC(CNC(=O)c1cccnc1)=NO)C(C(C)C)[N+](=O)[O-]` (stereo not drawn) gave a melting point of 141 to 142 °C.
As to `CCCC(=O)c1cnc2c(OC)cccc2c1Nc1ccc(O)c(F)c1`, the melting point lay within 266 to 268 °C.
`CCc1ccc(-c2ccc3c(c2)C=C(C(=O)Nc2ccc(CN(C)C4CCOCC4)cc2)CCO3)cc1` showed a melting point of 181 to 182 °C.
In turn, `Cc1cc(C)c(S(=O)(=O)ON)c(C)c1` displayed a melting point of 90 to 91 °C.
Molecule `CC(=O)NC1CCN(c2nc(Nc3ccc(F)cc3F)c(C(=O)O)cc2F)C1` (stereo not drawn) gave a melting point of 232 to 234 °C.
The molecule `COc1cc(OC)c2nc[nH]c(=O)c2c1` gave a melting point of 280 to 282 °C.
The molecule `CN(C)S(=O)(=O)c1cccc(NC(=O)c2cnn3c(C(F)F)cc(-c4ccc(C(F)(F)F)cc4)nc23)c1` displayed a melting point of 197 °C.
`COc1cccc(Oc2cccnc2C(=O)NCCNC(=O)OC(C)(C)C)c1`: the melting point fell in the range of 81 to 82 °C.
`CN1CCc2ccc(C(=O)CCC(=O)N3CCC(c4ccc(Cl)cc4)CC3)cc2C1` registered a melting point of 139 to 140 °C.
The value for `Cc1ccc(N2C(=O)C3=C(CCCC3)C2=O)c2c1OC(C)C2` (stereo not drawn) was 158 to 160 °C; that for `O=C(Nc1cccnn1)N1CCN(c2nc(-c3ccccc3)ns2)CC1` was 185 to 186 °C.
`COc1ccc(CNc2nc(OCc3ccccn3)ncc2C(=O)c2cc(OC)c(OC)c(OC)c2)cc1NC(C)=O`: the melting point fell in the range of 194 to 196 °C.
`CNC(=O)c1c(-c2ccccc2)noc1CC(O)c1ccc(C)cc1` (stereo not drawn) came in with a melting point of 148 to 150 °C.
On to `Cc1c(Cc2cccc(C(F)(F)F)c2)sc2c(-c3cc(F)cc(C(=O)O)c3)cccc12`, for which the melting point lay in the range of 168 to 169 °C.
Consider `CC(C)(C)c1ccc(Oc2nc(Nc3cccc(CO)c3)nc(Oc3ccccc3)n2)cc1`, for which the melting point is 47 to 50 °C.
As for `CCCCn1cc(-c2nnnn2C)c(=O)c2ccccc21`, the melting point was in the range of 100 to 105 °C.
For the molecule `CN=C(NS(=O)(=O)N1CCOCC1)C1=NN(c2ccc(Cl)cc2Cl)C(c2ccccc2)C1` (stereo not drawn), the melting point fell in the range of 161 to 165 °C.
The value for `CCOC(=O)N1CCN(c2nc(N)ccc2[N+](=O)[O-])CC1` was 132 to 134 °C; that for `Nc1ncc(-c2cnc3[nH]c(=O)n(CC4CCCCC4)c3n2)cn1` was over 250 °C; that for `CC1=NN(C)C(=O)C1(Cl)C(Cl)c1ccc(Cl)cc1Cl` (stereo not drawn) was 113 to 115 °C.
On to `Cc1c(C(=O)O)cnn1-c1nc(-c2ccc3ccccc3c2)cs1`, for which the melting point fell in the range of 273 to 274 °C.
The molecule `CC(O)=C(C#N)C(=O)Nc1ccc(OC(F)(F)F)c(Br)c1` gave a melting point of 178 to 179 °C.
The value for `CCCCc1nnc(SCc2ccc(Cl)cc2)n1Cc1ccc(-c2ccccc2-c2nnn[nH]2)cc1` was 92 to 93 °C; that for `COc1ccc(CC(=O)c2ccc(OCc3ccccc3)cc2)cc1` was 147 to 148 °C; that for `CCOC(=O)N1CC2CCN(c3c(F)cc4c(=O)c(C(=O)O)cn(C5CC5)c4c3F)C2C1` (stereo not drawn) was 192 to 193 °C.
Turning to `Nc1ncnc2c1c(-c1ccc3cn[nH]c3c1)nn2Cc1oc2ccccc2c(=O)c1-c1ccccc1`, the melting point fell in the range of 140 to 143 °C.
The value for `Cn1c([N+](=O)[O-])cnc1-c1nc(Cl)c2ccccc2n1` was 178 to 181 °C.
As for `CC(C)CN1CCS(=O)(=O)c2sc(S(N)(=O)=O)cc2C1`, the melting point was 149 to 151 °C.
The value for `CCOC(=O)c1cc(C#N)c(N)cc1OC` was 164 °C; that for `CC(C)c1c(CC[C@@H]2C[C@@H](O)CC(=O)O2)n(-c2ccc(F)cc2)c(=O)c2ccccc12` was 192 to 193 °C; that for `CCNc1cc(NS(=O)(=O)c2ccc(N)cc2)nc(N2CCC2)n1` was 260 to 262 °C.
The value for `CC(C)CCC(=O)Nc1ccc2oc3c(c2c1)CCCC3` was 146 °C; that for `O=[N+]([O-])c1cccc([N+](=O)[O-])c1F` was 50 °C; that for `Cc1ccc2c(c1C)C(=O)C(=O)N2` was 225 to 226 °C.
`COC(=O)c1ccccc1N(C)C(=O)CBr` showed a melting point of 80 to 82 °C.
`CC(=O)OCc1nn(C(C)=O)c2cccc(OCc3ccccc3)c12` registered a melting point of 99 to 100 °C.
Turning to `COC(=O)c1ccc(OC(=O)Cl)cc1`, the melting point lay in the range of 52 to 53 °C.
Molecule `CNc1cc(Oc2nn(C)c(C(F)(F)F)c2Cl)ccc1C#N` returned a melting point of 115 to 117 °C.
As for `CCOC(=O)c1c(C)cc2c(c1C)C(=O)OCC2=O`, the melting point was 142 to 144 °C.
Regarding `Cc1oc2c(-n3c(=O)cc(C(F)(F)F)n(C)c3=O)c(F)cc(Cl)c2c1CC(N)=O`, the melting point fell in the range of 127 to 129 °C.
The value for `Clc1ccc(Nc2nnc(NCc3ccncc3)c3ccccc23)cc1` was 233 to 236 °C; that for `COC(=O)c1cc(-c2ccc(OC)cc2)nn(CC(=O)Nc2ccc(SC)cc2)c1=O` was 130 to 132 °C; that for `COC(=O)[C@H](CN1CCC(=C2c3ccccc3C=Cc3ccccc32)CC1)NC(=O)OCc1ccccc1` was 116 to 119 °C.
On to `COc1cc2c(Cl)nc(-c3ccc(Cl)cc3)nc2c(OC)c1OC`, for which the melting point was determined as 159 °C.
`C=C(C)COc1ccc(C(=O)C=Cc2cccc(OC)c2)c(O)c1` gave a melting point of 97 to 100 °C.
As to `CCc1c(O)c(C(C)=O)c(C)c2c1OC(C)(C)CC2C` (stereo not drawn), the melting point lay within 70 to 71 °C.
The value for `c1ccc(N(c2ccccc2)c2ccc(-c3ccc(-c4ccnc(C5Cc6ccccc6N5)n4)cc3)cc2)cc1` (stereo not drawn) was 247 to 248 °C; that for `COc1c(Cl)cc(C(=O)Cl)cc1Cl` was 153 to 157 °C.
`CCn1cc(C(=O)O)c(=O)c2cnc(N3CCN(CCO)CC3)nc21` returned a melting point of 222 °C.
Take `CCOC(=O)C(C)Oc1ccc(OCc2ccccc2)cc1` (stereo not drawn): the melting point was 36 to 44 °C.
`Cc1nn(-c2cc(O)c(Cl)cc2F)c(C)c1[N+](=O)[O-]` returned a melting point of 157 to 158 °C.
The value for `COc1cc2nc(N3CCc4c(ncnc4N4CCOCC4)C3)[nH]c(=O)c2cc1OC` was 288 to 290 °C; that for `OCC1OC(c2n[nH]c3cncnc23)C(O)C1O` (stereo not drawn) was 227 to 228 °C; that for `CC1(c2ccc(F)cc2)CN(Cc2ccc(COc3cccc4c3CN(C3CCC(=O)NC3=O)C4=O)cc2)CCO1` (stereo not drawn) was 118 to 120 °C.
The value for `COc1cc(C)cc(OC)c1CCCCCNC(=O)[C@@H](CCCCN)NC(=O)c1cc2ccccc2n1CC(=O)O` was 173 °C; that for `CCOC(=O)Cc1csc2nc(C(=O)OC)cn12` was 152 to 154 °C.
`Cc1ccccc1-c1ccc(C(=O)N2Cc3ccc(C(=O)C(Cl)(Cl)Cl)n3Cc3ccccc32)cc1C` showed a melting point of 212 to 214 °C.
Consider `CCN(C)c1cc(Br)cc(S(=O)(=O)c2ccc(N)cc2)c1`, for which the melting point was 162 to 164 °C.
On to `CC(C(=O)c1ccc(Br)cc1)n1ncn(-c2ccc(N3CCN(c4ccc(O[Si](C)(C)C(C)(C)C)cc4)CC3)cc2)c1=O` (stereo not drawn), for which the melting point is 178 °C.
For the molecule `CN(C)c1ccc([N+](=O)[O-])cc1C#N`, the melting point was 109 to 110 °C.
The value for `CC(C)(C)C1c2ccccc2CCC1O` (stereo not drawn) was 104 °C; that for `CCOC(=O)c1c(-c2ccc(CBr)cc2)nc2ccccn12` was 131 °C.
The value for `CCOC(=O)C(C)OCc1cc2cc(Cl)ccc2n1S(=O)(=O)c1cc(OC)ccc1OC` (stereo not drawn) was 118 to 120 °C; that for `CCOC(=O)C1CN(c2cc3ccccc3c(=O)[nH]2)CCN1C` (stereo not drawn) was 105 to 109 °C.
With `Cc1noc(NS(=O)(=O)c2ccc(Br)cc2)c1Br`, the melting point was in the range of 146 to 149 °C.
For the molecule `COC(=O)[C@@H]1C[C@H](C(=O)O)Nc2cc(Cl)c(Cl)c(Cl)c21` (relative stereo), the melting point came out at 210 °C.
`CC(Oc1ccc(Cl)cc1Cl)c1ccnc2ncnn12` (stereo not drawn) registered a melting point of 137 to 138 °C.
Consider `C=CCCCCCCCCCCCCCCCCCCCCO`, for which the melting point fell in the range of 62 to 64 °C.
The value for `CSc1cc(C)nc(SC)c1NC(=O)CCCCCCCCSc1nc2ccccc2s1` was 126 to 127 °C.
In turn, `O=c1[nH]c(=O)c2cc(Oc3ccc(F)cc3F)ncc2[nH]1` returned a melting point of over 300 °C.
The molecule `CCCNC(=O)C(C)Cc1ccc2c(c1)c(Cc1ccc(C(=O)NS(=O)(=O)c3ccccc3C)cc1OC)cn2CCC(=O)N(C)C` (stereo not drawn) displayed a melting point of 120 to 132 °C.
On to `CC(C)=CCc1cc(-c2oc3c(CC=C(C)C)c(O)cc(O)c3c(=O)c2O)ccc1O`, for which the melting point fell in the range of 145 to 146 °C.
The value for `Cc1ccc(C(=O)NCC2CCN(C[C@H]3COc4ccc(Cl)cc4O3)CC2)c(N)n1` was 160 to 163 °C; that for `CCOC(=O)c1cn2c3c(cc(I)cc3c1=O)OC(c1ccccn1)C2` (stereo not drawn) was 224 to 225 °C.
In turn, `COc1ccc(C=Cc2cc(F)c(OC)c(OC)c2)cc1O` gave a melting point of 86 to 87 °C.
Molecule `CC(C)(C)NC(=O)CN1C(=O)[C@@H](CNC(=O)Nc2cccc(Cl)c2)C[C@H](c2ccccc2)c2ccccc21` had a melting point of 156 to 170 °C.
The molecule `Cc1ccc(C(O)(Cc2nnnn2C)c2ccc(C)cc2F)c(F)c1` showed a melting point of 150 to 151 °C.
For `CCN(CC)C(=O)c1ccc([N+](=O)[O-])c(C)c1`, the melting point was 74.5 to 76 °C.
The value for `CCn1ncc2nc(C(=O)Nc3nccs3)c(-c3ccccc3)nc21` was 194 to 196 °C; that for `COCCc1nc2c(N)nc3ccccc3c2n1CC1(O)CCCCC1` was 189 to 191 °C.
For `O=S1(=O)NC2CCCN2c2ccc(O)cc21` (stereo not drawn), the melting point lay in the range of 237 to 242 °C.
`CCC(=O)N1C(=O)OC(C)(C)[C@@H]1Cc1ccccc1` showed a melting point of 61 °C.
For the molecule `O=C(O)Cc1cc(Cl)ccc1Oc1ccccc1`, the melting point fell in the range of 119 to 123 °C.
The value for `CCOc1nc2cc(C)nn2c2cc(Cl)ncc12` was 176 °C.
`Cc1c(-c2cccnc2)n(Cc2ccc(C#N)cc2)c2ccccc12` displayed a melting point of 127 to 129 °C.
